According to ChEMBL document CHEMBL4428126, “Identification and Structural Characterization of Three New Metabolites of Bupropion in Humans” (ACS Med Chem Lett, 2016):

Legend:
[1] = Drug recovery in urine of human treated with bupropion assessed as conjugated drug level administered orally measured over steady state dosing interval; assay type: ADME; details: po
Cytochrome P450 2C19 [2] = target: T1, Cytochrome P450 2C19 (Homo sapiens, UniProt P33261); assay: Drug metabolism assessed as recombinant CYP2C19 (unknown origin)-mediated erythro-4'-OH-bupropion formation at 1 uM preincubated for 5 mins followed by addition of NADPH measured after 20 mins by LC-MS/MS method; assay type: ADME; details: recombinant enzyme
T1 sequence (P33261 whole entry): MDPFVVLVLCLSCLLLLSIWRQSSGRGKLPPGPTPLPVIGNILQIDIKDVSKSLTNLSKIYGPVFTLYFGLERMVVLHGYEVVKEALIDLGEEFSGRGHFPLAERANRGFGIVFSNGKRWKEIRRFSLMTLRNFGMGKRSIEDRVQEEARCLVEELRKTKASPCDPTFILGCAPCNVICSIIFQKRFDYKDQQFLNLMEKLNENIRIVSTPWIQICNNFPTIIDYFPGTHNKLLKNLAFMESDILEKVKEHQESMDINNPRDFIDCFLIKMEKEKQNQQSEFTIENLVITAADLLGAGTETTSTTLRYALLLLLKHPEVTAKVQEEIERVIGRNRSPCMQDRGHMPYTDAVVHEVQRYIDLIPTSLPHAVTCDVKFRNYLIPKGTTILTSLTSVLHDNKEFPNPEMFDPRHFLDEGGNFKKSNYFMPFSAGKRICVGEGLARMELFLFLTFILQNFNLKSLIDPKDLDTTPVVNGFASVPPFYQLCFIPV

[3] = Drug metabolism in human liver cytosol assessed as formation of metabolites with m/z transitions of 258 to 184 at 10 uM preincubated for 5 mins followed by addition of NADPH measured after 20 mins by LC-MS/MS analysis; assay type: ADME, subcellular
[4] = Drug level in human liver microsome treated with bupropion at 10 uM preincubated for 5 mins followed by addition of NADPH measured after 20 mins by LC-MS/MS analysis; assay type: ADME; details: microsomes
[5] = Drug recovery in urine of human treated with bupropion assessed as free drug level administered orally measured over steady state dosing interval; assay type: ADME, tissue-based; details: po
[6] = Drug metabolism in human liver microsomes assessed as formation of metabolites with m/z transitions of 258 to 184 at 10 uM preincubated for 5 mins followed by addition of NADPH measured after 20 mins by LC-MS/MS analysis; assay type: ADME, Microsome
Cytochrome P450 2C19 [7] = target: T1, Cytochrome P450 2C19; assay: Drug metabolism assessed as recombinant CYP2C19 (unknown origin)-mediated threo-4'-OH-bupropion formation at 1 uM preincubated for 5 mins followed by addition of NADPH measured after 20 mins by LC-MS/MS method; assay type: ADME; details: recombinant enzyme
[8] = Drug metabolism in human liver microsomes assessed as hydroxylation of t-butyl group preincubated for 5 mins followed by addition of NADPH measured after 20 mins by LC-MS/MS analysis; assay type: ADME, Microsome
[9] = Drug metabolism in acid deconjugated urine of human subjects assessed as metabolite M4 formation at 300 mg/day by LC/MS/MS analysis; assay type: ADME, tissue-based
[10] = Drug level in human liver microsomes treated with threohydrobupropion-d9 assessed as hydroxylation of t-butyl group preincubated for 5 mins followed by addition of NADPH measured after 20 mins by LC-MS/MS analysis; assay type: ADME, Microsome
[11] = Drug excretion in acid deconjugated urine of human subjects treated with 300 mg/day bupropion by LC/MS/MS analysis; assay type: ADME, tissue-based
[12] = Drug level in human liver microsomes treated with 10 uM threohydrobupropion assessed as compound formation with m/z transitions of 258 to 184 preincubated for 5 mins followed by addition of NADPH measured after 20 mins by LC-MS/MS analysis; assay type: ADME, Microsome
[13] = Drug level in plasma of human subjects assessed as compound formation treated with 300 mg/day bupropion by LC/MS/MS analysis; assay type: ADME, cell-free
[14] = Drug level in human liver microsomes treated with 10 uM erythrohydrobupropion assessed as compound formation with m/z transitions of 258 to 184 preincubated for 5 mins followed by addition of NADPH measured after 20 mins by LC-MS/MS analysis; assay type: ADME, Microsome
[15] = Drug recovery in human urine assessed as threohydrobupropion administered as single oral dosage; assay type: ADME, tissue-based
[16] = Plasma concentration in human assessed as threo-4'-OH-bupropion at 300 mg/day by LC/MS/MS analysis; assay type: ADME, cell-free
[17] = Drug excretion in human urine assessed as 4'-OH-bupropion formation at 300 mg/day by LC/MS/MS analysis; assay type: ADME, tissue-based
[18] = Drug metabolism in human liver microsomes assessed as NADPH-dependant metabolite formation at 10 uM preincubated for 5 mins followed by addition of NADPH measured after 20 mins by LC-MS/MS analysis; assay type: ADME, Microsome
[19] = Drug excretion in human urine assessed as polar metabolites formation administered as single oral dosage; assay type: ADME, tissue-based
[20] = Drug metabolism in acid deconjugated urine of human subjects assessed as metabolite M3 formation at 300 mg/day by LC/MS/MS analysis; assay type: ADME, tissue-based
[21] = Drug recovery in human urine assessed as conjugated drug level administered orally measured over steady state dosing interval; assay type: ADME, tissue-based; details: po
[22] = Drug metabolism in acid deconjugated urine of human subjects assessed as metabolite M7 formation at 300 mg/day by LC/MS/MS analysis; assay type: ADME, tissue-based
[23] = Drug metabolism in human urine assessed as metabolite M2 formation at 300 mg/day by LC/MS/MS analysis-MS analysis; assay type: ADME, tissue-based
[24] = Drug recovery in human urine assessed as OH-bupropion administered as single oral dosage; assay type: ADME, tissue-based
Cytochrome P450 2C19 [25] = target: T1, Cytochrome P450 2C19; assay: Drug metabolism assessed as recombinant CYP2C19 (unknown origin)-mediated 4'-OH-bupropion formation at 1 uM preincubated for 5 mins followed by addition of NADPH measured after 20 mins by LC-MS/MS method; assay type: ADME; details: recombinant enzyme
[26] = Plasma concentration in human assessed as erythro-4'-OH-bupropion at 300 mg/day by LC/MS/MS analysis; assay type: ADME, cell-free
[27] = Drug recovery in human urine assessed as free drug level administered orally measured over steady state dosing interval; assay type: ADME, tissue-based; details: po
[28] = Drug excretion in human urine assessed as m-chlorohippuric acid administered as single oral dosage; assay type: ADME, tissue-based
[29] = Drug recovery in human urine administered as single oral dosage; assay type: ADME, tissue-based; details: read-out: Drug recovery
[30] = Drug metabolism in plasma of human subjects assessed as metabolite M6 formation at 300 mg/day by LC/MS/MS analysis; assay type: ADME, cell-free
[31] = Drug recovery in human urine assessed as erythrohydrobupropion administered as single oral dosage; assay type: ADME, tissue-based
[32] = Plasma concentration in human assessed as 4'-OH-bupropion at 300 mg/day by LC/MS/MS analysis; assay type: ADME, cell-free
[33] = Drug metabolism in plasma of human subjects assessed as metabolite M4 formation at 300 mg/day by LC/MS/MS analysis; assay type: ADME, cell-free
[34] = Drug metabolism in human plasma assessed as metabolite M2 formation at 300 mg/day by LC/MS/MS analysis; assay type: ADME, cell-free
[35] = Drug metabolism in plasma of human subjects assessed as metabolite M7 formation at 300 mg/day by LC/MS/MS analysis; assay type: ADME, cell-free
[36] = Drug metabolism in human plasma assessed as 4'-OH-bupropion formation at 300 mg/day by LC/MS/MS analysis; assay type: ADME, cell-free
[37] = Drug metabolism in acid deconjugated urine of human subjects assessed as metabolite M6 formation at 300 mg/day by LC/MS/MS analysis; assay type: ADME, tissue-based
[38] = Drug recovery in human urine assessed as free and conjugated drug level administered orally measured over steady state dosing interval; assay type: ADME, tissue-based; details: po
[39] = Drug metabolism in human liver microsomes assessed as NADPH-dependant 4'-OH-bupropion formation at 10 uM preincubated for 5 mins followed by addition of NADPH measured after 20 mins by LC-MS/MS analysis; assay type: ADME, Microsome

## C[C@@H](NC(C)(C)C)[C@H](O)c1cccc(Cl)c1
[1]
  Drug recovery: 22 µmol
Cytochrome P450 2C19 [2]
  Drug metabolism: Metabolite_Detected
[3]
  Drug metabolism: Metabolite_Notdetected
[4]
  Drug metabolism: Metabolite_Detected
[5]
  Drug recovery: 63 µmol
[6]
  Drug metabolism: Metabolite_Detected

## C[C@@H](NC(C)(C)C)[C@@H](O)c1cccc(Cl)c1
[1]
  Drug recovery: 250 µmol
[3]
  Drug metabolism: Metabolite_Notdetected
[4]
  Drug metabolism: Metabolite_Detected
[5]
  Drug recovery: 610 µmol
[6]
  Drug metabolism: Metabolite_Detected
Cytochrome P450 2C19 [7]
  Drug metabolism: Metabolite_Detected

## [2H]C([2H])([2H])C(N[C@H](C)[C@@H](O)c1cccc(Cl)c1)(C([2H])([2H])[2H])C([2H])([2H])[2H]
[8]
  Drug metabolism: Metabolite_Notdetected

## C[C@@H](NC(C)(C)C)[C@H](O)c1ccc(O)c(Cl)c1
[1]
  Drug recovery: 160 µmol
[9]
  Drug metabolism: Metabolite_Detected
[10]
  Drug metabolism: Metabolite_Detected
[5]
  Drug recovery: 3.3 µmol
[11]
  Drug excretion: Metabolite_Detected
[12]
  Drug metabolism: Metabolite_Detected
[13]
  Drug metabolism: Metabolite_Detected
[6]
  Drug metabolism: Metabolite_Detected

## CC(NC(C)(C)C)C(=O)c1ccc(O)c(Cl)c1 (stereo not given)
[1]
  Drug recovery: 29 µmol
[3]
  Drug metabolism: Metabolite_Notdetected
[4]
  Drug metabolism: Metabolite_Detected
[5]
  Drug recovery: 0.3 µmol
[11]
  Drug excretion: Metabolite_Detected

## CC1NC(C)(C)COC1(O)c1cccc(Cl)c1 (stereo not given)
[1]
  Drug recovery: 110 µmol
[3]
  Drug metabolism: Metabolite_Notdetected
[4]
  Drug metabolism: Metabolite_Detected
[5]
  Drug recovery: 77 µmol
[6]
  Drug metabolism: Metabolite_Notdetected

## O=C(O)CNC(=O)c1cccc(Cl)c1
[5]
  Drug recovery: 167 µmol

## C[C@@H](NC(C)(C)C)[C@@H](O)c1ccc(O)c(Cl)c1 (relative stereo)
[1]
  Drug recovery: 200 µmol
[9]
  Drug metabolism: Metabolite_Detected
[14]
  Drug metabolism: Metabolite_Detected
[5]
  Drug recovery: 0.9 µmol
[11]
  Drug excretion: Metabolite_Detected
[13]
  Drug metabolism: Metabolite_Detected
[6]
  Drug metabolism: Metabolite_Detected

## CC(NC(C)(C)C)C(=O)c1cccc(Cl)c1 (stereo not given) [BUPROPION]
[15]
  Drug recovery: 23 %ID
[16]
  concentration: 7 nM
[17]
  Drug excretion: Metabolite_Detected
[9]
  Drug metabolism: Metabolite_Detected
[18]
  Drug metabolism: Metabolite_Detected
[19]
  Drug excretion: 36 %ID
[20]
  Drug metabolism: Metabolite_Detected
[21]
  Drug recovery: 6.5 µmol
[22]
  Drug metabolism: Metabolite_Detected
[23]
  Drug metabolism: Metabolite_Notdetected
[24]
  Drug recovery: 23 %ID
Cytochrome P450 2C19 [25]
  Drug metabolism: Metabolite_Detected
[26]
  concentration: 33 nM
[27]
  Drug recovery: 59 µmol
[28]
  Drug excretion: 22 %ID
[29]
  dose excreted: 23%
[30]
  Drug metabolism: Metabolite_Detected
[31]
  Drug recovery: 23 %ID
[32]
  concentration: 12 nM
[33]
  Drug metabolism: Metabolite_Detected
[34]
  Drug metabolism: Metabolite_Notdetected
[35]
  Drug metabolism: Metabolite_Detected
[36]
  Drug metabolism: Metabolite_Detected
[37]
  Drug metabolism: Metabolite_Detected
[38]
  Drug recovery: 1.4 %ID
[39]
  Drug metabolism: Metabolite_Detected
